Experiment [1] concerns the target T1, MAO-A (Rattus norvegicus, UniProt P21396).
T1 construct: human and rat tissue to obtain the isolated forms of monoamine oxidase A and B; from tissue
T1 sequence (P21396 1-526): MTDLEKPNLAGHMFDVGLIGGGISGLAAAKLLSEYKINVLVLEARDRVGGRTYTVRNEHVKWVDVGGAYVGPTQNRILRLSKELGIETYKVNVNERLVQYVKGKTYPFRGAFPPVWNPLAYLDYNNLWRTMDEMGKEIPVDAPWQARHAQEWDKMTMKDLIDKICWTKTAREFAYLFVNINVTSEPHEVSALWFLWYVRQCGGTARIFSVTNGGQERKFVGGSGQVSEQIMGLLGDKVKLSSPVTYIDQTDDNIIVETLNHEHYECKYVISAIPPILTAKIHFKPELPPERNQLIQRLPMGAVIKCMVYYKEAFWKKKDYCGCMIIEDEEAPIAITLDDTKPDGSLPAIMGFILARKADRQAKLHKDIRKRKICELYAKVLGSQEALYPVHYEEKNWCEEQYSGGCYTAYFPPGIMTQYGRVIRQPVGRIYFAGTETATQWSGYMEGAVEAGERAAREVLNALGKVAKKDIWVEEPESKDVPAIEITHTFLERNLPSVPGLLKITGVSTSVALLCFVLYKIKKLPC
Description: Kinetic parameters of suicide-type inhibition, MAO-A. It is filed as biochemical, Sprague-Dawley rat. The text has this:
Based on the apparent velocity constants of the first order (kapp) obtained for each inhibitor, calculations were made of the K1 and K^1c at (according to the method described by M. Avila et al. 1993, Biochem Pharmac 45, 2231-2237). K1 is the affinity constant of the first stage of the reaction and K1 MAO-A / K1 MAO-B the expression of the selectivity.
K^1cat is the velocity constant for the formation of the covalent irreversible complex during the second stage of the process. To compare the values of these constants towards the two forms of MAO, we express the inhibition efficacy as the ratio K^1cat/K1. The value of these constants (see Tables 2 and 3), is the result of three different experiments, with their corresponding SEM.

The target of experiment [2] is T1, MAO-A. Description: biochemical. The class given is biochemical, Sprague-Dawley rat. Here is the method: (§1) The mitochondrial portion of Sprague-Dawley rat was used to determine the MAO-A and MAO-B activity.
(§2) Determinations were made of the comparative MAO-A and MAO-B activity inhibition curves of the various compounds under study at time 0 and 30 min. by measuring the remaining activity to 5-HT and PEA as substrates.

Experiment [3] concerns the target T2, MAO-B (Homo sapiens, UniProt P27338).
T2 construct: performed using homogenated human cerebral cortex obtained from autopsies; from tissue; host or cells: post-mortem human cerebral cortex homogenate
T2 sequence (P27338 1-520): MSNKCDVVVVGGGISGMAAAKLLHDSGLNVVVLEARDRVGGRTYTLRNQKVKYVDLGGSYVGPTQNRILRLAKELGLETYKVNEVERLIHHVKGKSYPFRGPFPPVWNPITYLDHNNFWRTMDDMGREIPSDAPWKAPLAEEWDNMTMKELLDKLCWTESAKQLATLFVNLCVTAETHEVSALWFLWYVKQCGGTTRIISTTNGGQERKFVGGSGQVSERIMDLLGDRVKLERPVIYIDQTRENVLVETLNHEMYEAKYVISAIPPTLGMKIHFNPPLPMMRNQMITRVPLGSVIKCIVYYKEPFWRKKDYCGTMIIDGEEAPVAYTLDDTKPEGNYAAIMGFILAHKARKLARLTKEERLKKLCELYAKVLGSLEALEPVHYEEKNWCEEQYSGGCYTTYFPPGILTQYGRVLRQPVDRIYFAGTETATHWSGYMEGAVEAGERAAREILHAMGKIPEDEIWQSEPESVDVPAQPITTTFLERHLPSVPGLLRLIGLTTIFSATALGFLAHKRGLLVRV
The experiment can be described thus: MAO-B inhibition in homogenated human cerebral cortex. The class given is biochemical. The text has this:
They were provided by Dr. Fco Javier González Oliván (Forensic Anatomic Institute of the Hospital Clínico Provincial in Barcelona).

A further experiment deals with MPTP neurotoxin. The experiment can be described thus: Protection against the neurotoxicity of MPTP (striatal DA and DOPAC levels). Conditions: striate, FA-73 3 mg/Kg i.p. 2 h before MPTP HCl 30 mg/Kg i.p., MPTP repeated on day 2, 24 h after last MPTP. It is filed as in vivo, mice of the C57/BL species.
Experiment [4] addresses T3, MAO-B (Rattus norvegicus, UniProt P19643).
T3 construct: from tissue; host or cells: Sprague-Dawley rat liver, mitochondrial fraction
T3 sequence (P19643 1-520): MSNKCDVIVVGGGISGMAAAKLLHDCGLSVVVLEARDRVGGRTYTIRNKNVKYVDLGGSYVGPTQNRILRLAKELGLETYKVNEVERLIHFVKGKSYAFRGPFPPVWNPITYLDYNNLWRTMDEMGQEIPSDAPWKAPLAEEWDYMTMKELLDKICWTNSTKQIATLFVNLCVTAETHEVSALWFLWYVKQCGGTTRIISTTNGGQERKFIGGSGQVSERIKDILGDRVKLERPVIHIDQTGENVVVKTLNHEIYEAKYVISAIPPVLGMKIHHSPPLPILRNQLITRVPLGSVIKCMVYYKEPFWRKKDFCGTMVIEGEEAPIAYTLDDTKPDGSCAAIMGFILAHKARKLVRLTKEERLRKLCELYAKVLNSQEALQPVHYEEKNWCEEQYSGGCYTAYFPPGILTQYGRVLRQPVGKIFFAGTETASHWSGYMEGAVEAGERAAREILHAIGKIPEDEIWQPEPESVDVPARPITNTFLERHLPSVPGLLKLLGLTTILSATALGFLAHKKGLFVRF
The experiment can be described thus: MAO-B inhibition, mitochondrial portion of rat (IC50, time dependence, irreversibility), substrate PEA. The class given is biochemical, Sprague-Dawley rat. Particulars: for IC50: MAO-B (lines B..), substrate PEA, rat mitochondria. Here is the method: as §1, §2

A word on the IC50: it is the concentration at which inhibition is half-maximal.

Read-outs that look alike come from different tables or passages of the source.

Description for MPTP neurotoxin: Two hours later they were administered MPTP HCl (30 mg/Kg i.p.) and this dose was repeated on the second day. Twenty four hours after the last injection of MPTP the animals were sacrificed. The brains were dissected and determinations made of the dopamine (DA) and 3,4-dihydroxyphenylacetic acid (DOPAC) levels in the striate.

As to `C#CCNCc1cc2cc(OCc3ccccc3)ccc2[nH]1` [FA-73], the Ki on MAO-A [1] (MAO-A (A..), affinity constant of the first stage, three experiments ± SEM, read-out: K1) worked out at 0.8 µM. The “K^1cat / K1(10^-3)” value on MAO-A [1] (MAO-A, inhibition efficacy) is given as 0.1 10^-3. Besides, on MAO-A [1] (MAO-A, velocity constant for formation of the covalent irreversible complex, ± SEM), the “K^1cat” value is 0.087 ± 0.006 min⁻¹. Further, the half-inhibitory concentration (IC50) at MAO-A [2] is 15.8 µM; on MAO-A [2] (read-out: IC50 30 min., MAO-A (lines A..), substrate 5-HT, 30 min incubation, rat mitochondria) it was 1.25 µM; at MAO-B [3], 0.2 µM; at MAO-B [4] (IC50 0 min, 0 min incubation), 0.1 µM; on MAO-B [4] (IC50 30 min., 30 min incubation) it was 0.015 µM. For the same compound, the “dependence of the inhibition on the incubation time” value at MAO-A [2] (MAO-A) and at MAO-B [4] (MAO-B) was “drop in the formation of product as a function of the time of incubation” throughout. Also, the “irreversibility of the inhibition process” value is recorded as “irreversibility” at MAO-A [2] (MAO-A, inhibitor concentrations close to the IC50) and “irreversibility” at MAO-B [4] (MAO-B, inhibitor concentrations close to the IC50). In addition, the DOPAC in the experiment on MPTP neurotoxin (control 0.98, MPTP alone 0.54) turned out to be 0.93 ± 0.023 µg/g dry tissue. Further, the “Dopamine (DA)” value in the experiment on MPTP neurotoxin (control 10.85, MPTP alone 3.13) worked out at 10.48 ± 0.085 µg/g dry tissue.
